The results in this text go back to ChEMBL document CHEMBL1201862, “PubChem BioAssay data set” (2004).

SMILES strings stand for the structures.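 Values below derive from 48-hour exposures of cells grown in 96-well plates, with endpoints linearly interpolated between the two concentrations bracketing the appropriate inhibition level. Abbreviation: GI50, concentration required for 50% inhibition of growth.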 The source made the active and inactive calls. Cut-off read from the data, not from the text of the source: active = GI50 up to about 1.1 µM and inactive = higher.

Some test systems named below: SK-MEL-2; SK-OV-3; HCT-116; NCI/ADR-RES; OVCAR-3; MDA-MB-231; SR; LOX IMVI; UACC-257; Hs-578T; M14; CCRF-CEM; DU-145; HOP-92; Malme-3M; SF-295; NCI-H522; EKVX; SNB-19.
Common to all, as to assay: inhibition of tumour cell growth, NCI panel, 48 h

`c1ccc(CN2CCC3(CC2)SSC2(CCN(Cc4ccccc4)CC2)S3)cc1`: the GI50 in the assay on SK-MEL-2 was 76.7 µM (inactive); in the assay on SK-OV-3, > 100 µM (inactive); with HCT-116, 50.8 µM (inactive); with NCI/ADR-RES, > 100 µM (inactive); in the assay with OVCAR-3, 76.4 µM (inactive); with MDA-MB-231, > 100 µM (inactive). For the same compound, the GI50 in the assay on SR is 28.8 µM (inactive); in the assay on LOX IMVI, 48.8 µM (inactive); in the assay on UACC-257 it was 26.7 µM (inactive); with Hs-578T, 17.7 µM (inactive); with M14, 66.5 µM (inactive); in the assay with CCRF-CEM, 65.9 µM (inactive). For the same compound, the GI50 in the assay with DU-145 was > 100 µM (inactive); with HOP-92 it was > 100 µM (inactive); with Malme-3M it was 53.7 µM (inactive); in the assay with SF-295 it was 26.5 µM (inactive).
On to `N#CCC12CC=CCC1=C(O)C(=O)c1ccc(O)cc12` (stereo not given), for which the GI50 with SK-MEL-2, in the assay with SK-OV-3, with HCT-116, in the assay on NCI/ADR-RES, in the assay with OVCAR-3 and in the assay with MDA-MB-231 was > 100 µM (inactive) throughout. Besides, the GI50 in the assay with SR is 90.8 µM (inactive); in the assay on LOX IMVI, > 100 µM (inactive); with UACC-257, > 100 µM (inactive); in the assay on NCI-H522, > 100 µM (inactive); with Hs-578T it was 58.1 µM (inactive); with EKVX it was > 100 µM (inactive). Moreover, the GI50 was 55.7 µM (inactive) with M14; > 100 µM (inactive) in the assay with CCRF-CEM; > 100 µM (inactive) in the assay with SNB-19; > 100 µM (inactive) in the assay on DU-145; > 100 µM (inactive) in the assay on Malme-3M; > 100 µM (inactive) with SF-295.
As to `NC1Cc2ccccc2OC1=O` (stereo not given), the GI50 with SK-MEL-2, in the assay on SK-OV-3, in the assay with NCI/ADR-RES, in the assay on OVCAR-3, in the assay with MDA-MB-231 and in the assay on SR was > 100 µM (inactive) in each case. Moreover, the GI50 in the assay on UACC-257, in the assay on NCI-H522, in the assay on Hs-578T, in the assay on EKVX, in the assay on M14 and in the assay with SNB-19 was > 100 µM (inactive) throughout. The GI50 in the assay with DU-145, with Malme-3M and with SF-295 was > 100 µM (inactive) throughout.
Consider `COc1ccc(-c2cn3c(nc4ccccc43)c(/C=C/c3cccs3)n2)cc1`, for which the GI50 was 10.6 µM (inactive) in the assay on SK-MEL-2; 75.2 µM (inactive) in the assay with SK-OV-3; 51.2 µM (inactive) in the assay with HCT-116; 13 µM (inactive) in the assay on NCI/ADR-RES; 21.6 µM (inactive) in the assay on OVCAR-3; > 100 µM (inactive) in the assay with MDA-MB-231. For the same compound, the GI50 in the assay with SR was 2.65 µM (inactive); in the assay on LOX IMVI, 35.3 µM (inactive); in the assay with UACC-257, 62.7 µM (inactive); in the assay on Hs-578T it was 28.4 µM (inactive); in the assay on M14 it was 37.8 µM (inactive); in the assay on SNB-19 it was 92.3 µM (inactive). Also, the results for the GI50 with DU-145, with HOP-92 and in the assay on Malme-3M were > 100 µM (inactive), 16.9 µM (inactive) and 23.4 µM (inactive), respectively.
In the case of `CN(C)Cc1cc(C(C)(C)C)cc(C2CCCCC2)c1O`, the GI50 in the assay on SK-MEL-2 was 18.3 µM (inactive); in the assay on SK-OV-3, 15 µM (inactive); in the assay with HCT-116 it was 40.7 µM (inactive); with NCI/ADR-RES, 19.6 µM (inactive); in the assay on OVCAR-3 it was 14.2 µM (inactive); in the assay with MDA-MB-231, 13.8 µM (inactive). Further, the GI50 in the assay on SR is 12.3 µM (inactive); with LOX IMVI, 15.2 µM (inactive); with UACC-257, 10.1 µM (inactive); with NCI-H522, 20.2 µM (inactive); in the assay with Hs-578T, 16.6 µM (inactive); with EKVX, 11.9 µM (inactive). Further, the GI50 was 24.6 µM (inactive) in the assay on M14; 13.5 µM (inactive) in the assay on CCRF-CEM; 13 µM (inactive) in the assay with SNB-19; 14.7 µM (inactive) in the assay with DU-145; 2.15 µM (inactive) in the assay with Malme-3M.
In the case of `S=c1nc(N2CCCCC2)c2cn[nH]c2[nH]1`, the GI50 in the assay on SK-MEL-2 is 20.1 µM (inactive); in the assay on HCT-116, 56.6 µM (inactive); with NCI/ADR-RES, > 100 µM (inactive); with OVCAR-3 it was 54.8 µM (inactive); in the assay on MDA-MB-231, > 100 µM (inactive); with SR, 14.5 µM (inactive). In addition, the GI50 with LOX IMVI is 39.4 µM (inactive); in the assay with UACC-257, 98.9 µM (inactive); with NCI-H522, 16.7 µM (inactive); with Hs-578T it was 57.4 µM (inactive); in the assay with EKVX it was > 100 µM (inactive); in the assay on M14 it was 74 µM (inactive). Also, the GI50 is 10.4 µM (inactive) in the assay with CCRF-CEM; > 100 µM (inactive) in the assay on SNB-19; 59.7 µM (inactive) in the assay on DU-145; 64.9 µM (inactive) in the assay on Malme-3M; 59.6 µM (inactive) with SF-295.
For `Cc1cn(C2OC(CO)C(O)C2F)c(=O)[nH]c1=O` (stereo not given), the GI50 with SK-MEL-2 was > 100 µM (inactive); in the assay on SK-OV-3, > 100 µM (inactive); with HCT-116, 73.3 µM (inactive); in the assay on NCI/ADR-RES, 64 µM (inactive); with OVCAR-3 it was > 100 µM (inactive); with MDA-MB-231 it was > 100 µM (inactive). Moreover, the GI50 in the assay with LOX IMVI is 24.1 µM (inactive); in the assay with UACC-257 it was > 100 µM (inactive); in the assay with NCI-H522 it was 19.3 µM (inactive); with Hs-578T, > 100 µM (inactive); in the assay with EKVX, > 100 µM (inactive); with M14, 41.8 µM (inactive). The GI50 is 12.2 µM (inactive) in the assay with CCRF-CEM; > 100 µM (inactive) in the assay on SNB-19; 70.1 µM (inactive) with DU-145; > 100 µM (inactive) in the assay on HOP-92; > 100 µM (inactive) in the assay with Malme-3M; > 100 µM (inactive) with SF-295.
With `O=C1CC(c2ccccc2)Oc2ccccc21` (stereo not given) [FLAVANONE], the GI50 is 30.1 µM (inactive) in the assay on SK-MEL-2; 84.1 µM (inactive) in the assay on SK-OV-3; 30.3 µM (inactive) in the assay on HCT-116; 34.9 µM (inactive) in the assay with NCI/ADR-RES; 32.2 µM (inactive) in the assay with MDA-MB-231; 24 µM (inactive) in the assay with SR. The GI50 is 26.5 µM (inactive) in the assay on LOX IMVI; 77.3 µM (inactive) with UACC-257; 67.3 µM (inactive) with Hs-578T; 38.9 µM (inactive) in the assay with EKVX; 51.9 µM (inactive) in the assay with M14; 24.2 µM (inactive) with CCRF-CEM. For the same compound, the GI50 is 23.1 µM (inactive) in the assay with SNB-19, 67.6 µM (inactive) with DU-145, 24.9 µM (inactive) in the assay on HOP-92 and 58.1 µM (inactive) with SF-295.
As for `NS(=O)(=O)c1nnc(NS(=O)(=O)c2cccc3cccnc23)s1`, the GI50 with SK-MEL-2, in the assay with SK-OV-3, with HCT-116, in the assay with NCI/ADR-RES, in the assay on OVCAR-3 and with MDA-MB-231 was > 100 µM (inactive) each time. Moreover, the GI50 is 41.9 µM (inactive) in the assay with SR; > 100 µM (inactive) with LOX IMVI; > 100 µM (inactive) in the assay with UACC-257; > 100 µM (inactive) in the assay with Hs-578T; > 100 µM (inactive) in the assay on EKVX; > 100 µM (inactive) in the assay on M14. The GI50 with CCRF-CEM, in the assay with SNB-19, with DU-145, in the assay on HOP-92 and with SF-295 was > 100 µM (inactive) throughout.
As to `CCOC(=O)c1c2ccccc2n2c(=O)n(-c3ccc(OC)cc3)nnc12`, the GI50 is 22.8 µM (inactive) in the assay with SK-MEL-2; 26.7 µM (inactive) in the assay on SK-OV-3; 54.8 µM (inactive) in the assay with HCT-116; 31 µM (inactive) in the assay with NCI/ADR-RES; 34.4 µM (inactive) with OVCAR-3; > 45.5 µM (inactive) in the assay with MDA-MB-231. For the same compound, the GI50 in the assay with SR was 38.7 µM (inactive); with LOX IMVI it was 17.3 µM (inactive); in the assay with UACC-257, 60.5 µM (inactive); in the assay with Hs-578T it was 19.9 µM (inactive); in the assay on EKVX it was 32.1 µM (inactive); in the assay on M14 it was 51.1 µM (inactive). Also, the GI50 with SNB-19 is 34.2 µM (inactive); with DU-145, 75.2 µM (inactive); in the assay on HOP-92, 21.7 µM (inactive); in the assay on Malme-3M, 30.5 µM (inactive); with SF-295 it was 20.3 µM (inactive).
With `CC(C)[Si]1(C(C)C)OCC2OC3(CO)C(Oc4nc(=O)ccn43)C2O[Si](C(C)C)(C(C)C)O1` (stereo not given), the GI50 with SK-MEL-2 is 16.3 µM (inactive); with SK-OV-3, 20 µM (inactive); in the assay on HCT-116 it was 10.9 µM (inactive); in the assay with NCI/ADR-RES it was 17.4 µM (inactive); in the assay on MDA-MB-231, 10.2 µM (inactive); in the assay with SR, 15.5 µM (inactive). The GI50 was 15 µM (inactive) in the assay with LOX IMVI; 14.7 µM (inactive) in the assay with UACC-257; 22.4 µM (inactive) with Hs-578T; 17.1 µM (inactive) in the assay with EKVX; 14.8 µM (inactive) in the assay with M14; 5.14 µM (inactive) in the assay with CCRF-CEM. The GI50 in the assay on SNB-19 was 15.9 µM (inactive); in the assay with DU-145 it was 14 µM (inactive); with HOP-92 it was 16.5 µM (inactive); in the assay on SF-295 it was 15 µM (inactive).
In the case of `C[C@]12CC(c3ccccc3O1)C(C(=O)NC13CC4CC(CC(C4)C1)C3)C(=O)N2` (stereo not given in full), the GI50 in the assay on SK-MEL-2 was 19.9 µM (inactive); in the assay with SK-OV-3, 64.9 µM (inactive); in the assay on HCT-116 it was 18.4 µM (inactive); with NCI/ADR-RES, 20.3 µM (inactive); in the assay on OVCAR-3 it was 44.9 µM (inactive); in the assay on MDA-MB-231 it was 34.4 µM (inactive). The GI50 with LOX IMVI was 23.4 µM (inactive); in the assay with UACC-257 it was 35.7 µM (inactive); with NCI-H522 it was 39 µM (inactive); with Hs-578T it was 55.7 µM (inactive); with EKVX, 0.249 µM (active); in the assay with M14 it was 15.6 µM (inactive). The GI50 in the assay on CCRF-CEM is 20 µM (inactive); with SNB-19, 23.4 µM (inactive); in the assay with DU-145 it was 38.4 µM (inactive); in the assay with HOP-92 it was 20.7 µM (inactive); with Malme-3M, 33 µM (inactive); with SF-295 it was 44.8 µM (inactive).
